In PMC5063381, “Characterization of the Neisseria meningitidis Helicase RecG” (PLoS ONE, 2016):

T1: RecGNm (Neisseria meningitidis, UniProt Q9JY17)
T1 construct: gene recG; ORF in pET28b(+) (pGTB1, NdeI/XhoI), N-terminal 6xHis-tag, expressed in E. coli ER2566; Ni-NTA and Superdex 75
T1 sequence (Q9JY17 1-680): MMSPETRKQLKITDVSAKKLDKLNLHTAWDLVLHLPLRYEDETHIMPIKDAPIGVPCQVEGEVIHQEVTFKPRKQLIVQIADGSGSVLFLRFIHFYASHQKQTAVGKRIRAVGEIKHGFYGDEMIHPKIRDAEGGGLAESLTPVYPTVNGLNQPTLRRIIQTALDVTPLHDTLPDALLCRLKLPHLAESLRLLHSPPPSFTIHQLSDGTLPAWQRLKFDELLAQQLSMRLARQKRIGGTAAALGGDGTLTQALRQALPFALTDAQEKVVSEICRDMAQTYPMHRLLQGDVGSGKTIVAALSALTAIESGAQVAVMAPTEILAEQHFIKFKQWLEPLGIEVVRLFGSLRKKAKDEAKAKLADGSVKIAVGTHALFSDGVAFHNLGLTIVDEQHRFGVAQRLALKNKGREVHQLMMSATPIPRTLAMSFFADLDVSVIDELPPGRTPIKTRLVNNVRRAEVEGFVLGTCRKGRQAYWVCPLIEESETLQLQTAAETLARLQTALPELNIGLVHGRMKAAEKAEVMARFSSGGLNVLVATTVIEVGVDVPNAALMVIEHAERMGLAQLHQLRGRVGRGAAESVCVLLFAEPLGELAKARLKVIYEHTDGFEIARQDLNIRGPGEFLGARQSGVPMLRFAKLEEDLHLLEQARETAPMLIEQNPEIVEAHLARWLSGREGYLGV

T2: Neisseria meningitidis DNA repair/recombination helicase RecG (Neisseria meningitidis strain MC58, UniProt Q9JY17 1-680)
T2 construct: RecG helicase of Neisseria meningitidis strain MC58; the ORF was amplified from genomic DNA and cloned into pET28b(+) between XhoI and NdeI (plasmid pGTB1); also called RecGNm; Nm RecG; source: E. coli ER2566, purified (Ni-NTA, gel filtration on Superdex 75)
T2 sequence (looked up): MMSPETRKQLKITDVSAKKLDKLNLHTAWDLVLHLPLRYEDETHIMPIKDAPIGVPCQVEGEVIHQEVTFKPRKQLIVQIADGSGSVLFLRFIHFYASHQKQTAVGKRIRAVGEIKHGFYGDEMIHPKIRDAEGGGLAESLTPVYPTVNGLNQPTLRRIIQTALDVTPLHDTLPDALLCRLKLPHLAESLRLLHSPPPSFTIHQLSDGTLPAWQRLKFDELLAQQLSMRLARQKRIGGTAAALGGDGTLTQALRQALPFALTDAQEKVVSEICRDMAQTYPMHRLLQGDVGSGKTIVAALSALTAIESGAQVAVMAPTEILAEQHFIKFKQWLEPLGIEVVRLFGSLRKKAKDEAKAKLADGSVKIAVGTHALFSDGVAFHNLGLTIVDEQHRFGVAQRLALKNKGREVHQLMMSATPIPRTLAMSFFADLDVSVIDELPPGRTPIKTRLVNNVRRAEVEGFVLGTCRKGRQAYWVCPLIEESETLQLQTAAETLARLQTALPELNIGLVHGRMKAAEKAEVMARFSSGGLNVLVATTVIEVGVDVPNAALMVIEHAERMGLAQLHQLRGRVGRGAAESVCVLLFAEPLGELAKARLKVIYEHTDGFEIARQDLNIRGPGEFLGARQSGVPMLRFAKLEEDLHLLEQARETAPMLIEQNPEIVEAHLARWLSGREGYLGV


What was measured:
RecGNm = target: T1, RecGNm; experiment: TLC ATPase assay with [gamma-32P]ATP; format: biochemical; settings: 100 nM DNA cofactor (branched DNA), 2 mM MgCl2, pH 7.5, 37 °C; labelled compound as tracer
[1] = target: T2, Neisseria meningitidis DNA …; experiment: MST; 21 nM RED-NHS labelled SSBNm, RecGNm titrated; 20 mM HEPES pH 7.5, 300 mM NaCl, 0.05% Tween 20, 0.1% Pluronic F-127, 0.1% PEG 8000, 2 mM DTT; 22°C, 40% MST power; settings: both partners purified

Molecule	% ATP hydrolysis (RecGNm)	Kd [1] [nM]
Nc1ncnc2c1ncn2[C@@H]1O[C@H](COP(=O)(O)OP(=O)(O)OP(=O)(O)O)[C@@H](O)[C@H]1O [ATP]	RecGNm displayed comparable capacity of ATP hydrolysis in the presence of different types of branched	–
Neisseria meningitidis single-stranded DNA-binding protein SSB (natural protein, Neisseria meningitidis strain MC58, UniProt P66848 1-174, looked up, Monolith NT Protein Labeling Kit RED-NHS dye, degree of labelling 0.65 (in the MST only), It was unlabelled in the gel filtration and RED-NHS labelled in the MST; also called SSBNm; source: plasmid pEH1 (pQE-30 harboring ssb from Nm MC58)) MSLNKVILIGRLGRDPEVRYMPNGEAVCNFSVATSETWNDRNGQRVERTEWHNITMYRKLAEIAGQYLKKGGLVYLEGRIQSRKYQGKDGIERTAYDIVANEMKMLGGRNENSGGAPYEEGYGQSQEAYQRPAQQSRQPASDAPSHPQEAPAAPRRQPVPAAAPVEDIDDDIPF	–	558 ± 139
